The values that follow come from ChEMBL document CHEMBL1201862, “PubChem BioAssay data set” (2004).

Molecules are shown by their SMILES.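 In this assay, cells in 96-well plates receive the compound at five concentrations for 48 hours. Endpoints are linearly interpolated between the surrounding concentrations. Here, GI50 denotes the concentration required for 50% inhibition of growth.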 Calls of active or inactive are those of the source. No stated cut-off is given here; in the data, active = GI50 up to about 1.1 µM and inactive = higher.

Holding throughout (test): NCI tumour cell line growth inhibition, 48 h
Experiment [1] concerns ACHN.
The subject of experiment [2] is CCRF-CEM.
For experiment [3], the system named is DU-145.
Experiment [4] has as its system HCT-15.
Experiment [5] concerns HOP-92.
Experiment [6] relates to Hs-578T.
Experiment [7] concerns K562.
Experiment [8] deals with KM12.
Experiment [9] relates to MCF7.
Experiment [10] has as its system MDA-MB-231.
Experiment [11] concerns NCI-H226.
The test system of experiment [12] is NCI/ADR-RES.
Experiment [13] relates to PC-3.
Experiment [14] concerns SF-268.
The subject of experiment [15] is SK-MEL-2.
Experiment [16] has as its system T47D.

In the case of `COc1ccc(C2C3=C(COC3=O)Oc3cc4c(cc32)OCO4)cc1OC` (centres undefined), the GI50 in experiment [1] is 1.82 µM (inactive); in [2], 0.428 µM (active); in experiment [3], 1.81 µM (inactive); in [4], 0.397 µM; in experiment [5] it was 39.4 µM (inactive); in [6], 0.408 µM (active). The GI50 in experiment [7] is 0.337 µM (active); in [8], 0.301 µM (active); in experiment [9] it was 0.408 µM (active); in experiment [10], 3.4 µM (inactive); in experiment [11] it was 4.65 µM (inactive); in [12], 0.33 µM (active). The GI50 in experiment [13] is 0.521 µM (active); in experiment [14], 6.17 µM (inactive); in experiment [15] it was 0.679 µM (active); in experiment [16], 10.1 µM (inactive).

For `CC1(C)CCOC(=O)C(Cl)CC1Cl` (centres undefined), the GI50 in [1] is > 100 µM (inactive); in [2], > 100 µM (inactive); in [3], > 100 µM (inactive); in [4], over 100 µM; in experiment [6] it was > 100 µM (inactive); in experiment [7] it was > 100 µM (inactive). The GI50 in [8], in experiment [9], in experiment [10], in experiment [11], in [12] and in [13] was > 100 µM (inactive) throughout. Further, the GI50 in [14], in [15] and in [16] was > 100 µM (inactive) throughout.

Regarding `CC(C)=CCc1c(O)c(CC=C(C)C)c2oc3c(c(=O)c2c1O)C(C=C(C)C)Oc1cc(O)ccc1-3` (centres undefined), the GI50 in experiment [1] is 4.49 µM (inactive); in [2], 0.804 µM (active); in experiment [3], 10.4 µM (inactive); in [4], 5.05 µM; in [5], 13.5 µM (inactive); in experiment [6], 12 µM (inactive). Also, the GI50 in experiment [7] is 3.98 µM (inactive); in experiment [8], 2.94 µM (inactive); in experiment [9], 4.98 µM (inactive); in experiment [10], 12.4 µM (inactive); in experiment [11], 20.5 µM (inactive); in [12], 12.1 µM (inactive). The GI50 in [13] was 5.41 µM (inactive); in [14] it was 6.07 µM (inactive); in experiment [15] it was 2.92 µM (inactive); in [16], 3.5 µM (inactive).

On to `Oc1cc(Br)cc2cc(Br)cnc12`, for which the GI50 in experiment [1] was 1.48 µM (inactive); in experiment [2], 1.83 µM (inactive); in [3], 3.68 µM (inactive); in [4], 1.13 µM; in [5], 13.7 µM (inactive); in experiment [6], 3.24 µM (inactive). In addition, the GI50 in experiment [7] is 1.21 µM (inactive); in [8], 5.38 µM (inactive); in [9], 5.35 µM (inactive); in experiment [10] it was 12.2 µM (inactive); in experiment [11] it was 15.3 µM (inactive); in experiment [12], 2.72 µM (inactive). Moreover, the figures for the GI50 in experiment [13], in [14] and in [16] were 3.71 µM (inactive), 1.1 µM (active) and 2.8 µM (inactive), respectively.

As for `CCCCCC/C=C\CCCCCCCCC(=O)c1cccc(OC)c1OC`, the GI50 in [1] was > 100 µM (inactive); in [2] it was 35.6 µM (inactive); in experiment [3] it was > 100 µM (inactive); in experiment [4] it was over 100 µM; in experiment [6], 65.2 µM (inactive); in experiment [7], 27.5 µM (inactive). The GI50 in experiment [8] is 84.7 µM (inactive); in experiment [9], > 10 µM (inactive); in experiment [10] it was > 100 µM (inactive); in experiment [11] it was > 100 µM (inactive); in experiment [12], 60.8 µM (inactive); in [13] it was 71 µM (inactive). Moreover, the GI50 was > 100 µM (inactive) in experiment [14], > 100 µM (inactive) in experiment [15] and 29.2 µM (inactive) in experiment [16].

As for `CC1C(c2ccccc2)OP(=O)(OC(C#N)c2ccccc2)N1C` (centres undefined), the GI50 is > 100 µM (inactive) in experiment [1]; 29.2 µM (inactive) in experiment [2]; > 100 µM (inactive) in experiment [3]; over 100 µM in [4]; 89.9 µM (inactive) in [5]; > 100 µM (inactive) in [6]. Further, the GI50 is 39.3 µM (inactive) in [7]; > 100 µM (inactive) in [8]; 37.6 µM (inactive) in [9]; > 100 µM (inactive) in experiment [10]; > 100 µM (inactive) in [12]; > 100 µM (inactive) in experiment [13]. Moreover, the GI50 in experiment [14] is > 100 µM (inactive); in experiment [15], 48.2 µM (inactive); in [16], 40.8 µM (inactive).

`Cc1ccc(O)c(Cc2nc3ccccc3nc2-c2cccc(Cl)c2)c1`: the GI50 in experiment [1] is 49 µM (inactive); in [3], > 100 µM (inactive); in experiment [4], 15.4 µM; in [5], 12.5 µM (inactive); in experiment [6], 30.6 µM (inactive); in experiment [7], 28.5 µM (inactive). In addition, the GI50 in experiment [8] is 59.6 µM (inactive); in experiment [9] it was 40.8 µM (inactive); in experiment [10], 46.3 µM (inactive); in experiment [11], 44.9 µM (inactive); in [12] it was 44.1 µM (inactive); in experiment [13], 42 µM (inactive). Besides, the GI50 in experiment [14] is 97.5 µM (inactive); in experiment [15] it was 46.3 µM (inactive); in experiment [16] it was 79.8 µM (inactive).

For the compound `Cc1cccc2nc3cccc(C(=O)NCCC[N+](C)(CCCNC(=O)c4cccc5nc6cccc(C)c6nc45)Cc4ccc([N+](=O)[O-])n4C)c3nc12`, the GI50 was 0.321 µM (active) in [1]; 0.94 µM (active) in experiment [2]; 1.45 µM (inactive) in experiment [3]; 2.4 µM in [4]; > 100 µM (inactive) in experiment [5]; 18.5 µM (inactive) in [6]. The GI50 in [7] was 0.407 µM (active); in experiment [8], 2.26 µM (inactive); in experiment [9], 0.552 µM (active); in experiment [10], 17.5 µM (inactive); in experiment [12] it was > 32.3 µM (inactive); in experiment [13], 1.83 µM (inactive). Moreover, the GI50 was 8.32 µM (inactive) in experiment [15] and 14.9 µM (inactive) in [16].

With `O=c1c2cccnc2n2n1Cc1ccccc1C2`, the GI50 in experiment [1] is > 100 µM (inactive); in experiment [2], > 100 µM (inactive); in experiment [3] it was > 100 µM (inactive); in experiment [4], over 100 µM; in experiment [5] it was > 100 µM (inactive); in [6] it was > 100 µM (inactive). Further, the GI50 in experiment [7], in experiment [9], in [10], in experiment [11], in experiment [12] and in experiment [13] was > 100 µM (inactive) in each case. For the same compound, the GI50 in [14] and in [16] was > 100 µM (inactive) in each case.

`C/C(=N\NC(N)=S)c1cccs1.OB(O)c1ccccc1`: the GI50 was > 100 µM (inactive) in experiment [1]; > 100 µM (inactive) in experiment [2]; > 100 µM (inactive) in experiment [3]; over 100 µM in experiment [4]; > 100 µM (inactive) in experiment [5]; > 100 µM (inactive) in [6]. Also, the GI50 in experiment [7], in experiment [8], in [9], in [10], in [11] and in experiment [12] was > 100 µM (inactive) each time. Further, the GI50 in experiment [13] is > 100 µM (inactive); in experiment [14] it was > 100 µM (inactive); in experiment [16], 75 µM (inactive).

For the compound `CC(C)=CC(=O)O[C@@H]1CC(C)(C)CC2C3=CCC4[C@]56CC[C@](O)(OC5)C(C)(C)C6CC[C@@]4(C)C3(C)CC[C@]21C(=O)O` (some centres undefined), the GI50 in experiment [1] was 25.8 µM (inactive); in experiment [2], 41.7 µM (inactive); in experiment [3], 56.4 µM (inactive); in experiment [4], 31.4 µM; in [6] it was > 100 µM (inactive); in [7], 48 µM (inactive). Besides, the GI50 in experiment [8] is 33 µM (inactive); in experiment [9], > 100 µM (inactive); in experiment [10], > 100 µM (inactive); in experiment [11] it was 34.2 µM (inactive); in experiment [12] it was 47.6 µM (inactive); in experiment [13] it was 33.2 µM (inactive). Also, the GI50 in experiment [14] is 74.1 µM (inactive); in [15], > 100 µM (inactive); in [16], > 100 µM (inactive).

With `C=CCN1CCN([C@H](c2ccc(C(=O)N(CC)CC)cc2)c2cccc(OC)c2)CC1`, the GI50 in experiment [1] is > 25 µM (inactive); in experiment [3], > 25 µM (inactive); in experiment [4] it was over 25 µM; in [5], 16.8 µM (inactive); in experiment [6], > 25 µM (inactive); in experiment [8], > 25 µM (inactive). Further, the GI50 in [9], in experiment [10], in [11], in experiment [12], in experiment [13] and in [14] was > 25 µM (inactive) throughout. In addition, the GI50 in experiment [15] and in [16] was > 25 µM (inactive) throughout.

In the case of `COc1cc(-c2oc3c(OC)c(O)c(OC)c(O)c3c(=O)c2OC)cc(OC)c1OC`, the GI50 is 48.3 µM (inactive) in experiment [1]; 47.9 µM (inactive) in experiment [2]; > 100 µM (inactive) in experiment [3]; 41.7 µM in experiment [4]; 14.3 µM (inactive) in experiment [6]; 36.7 µM (inactive) in [7]. The GI50 is > 100 µM (inactive) in experiment [8]; 38 µM (inactive) in experiment [9]; 73.6 µM (inactive) in [10]; > 100 µM (inactive) in experiment [11]; 62.5 µM (inactive) in experiment [12]; 65.8 µM (inactive) in experiment [13]. Also, the GI50 is 21 µM (inactive) in experiment [14], 77.1 µM (inactive) in experiment [15] and 24.6 µM (inactive) in [16].
